Data taken from US10906873B2, “Substituted cyclic amides as herbicides” (FMC Corporation, priority 2015, dated 2021).

Columns and labels:
Assay type in all cases: in vivo
corn (Zea mays) = experiment: Test A postemergence, corn; details: 0 to 100 scale
Excerpt: (§1) Seeds of plant species selected from barnyardgrass (Echinochloa crus-galli), crabgrass (large crabgrass, Digitaria sanguinalis), kochia (Kochia scoparia), ragweed (common ragweed, Ambrosia elatior), morningglory (Ipomoea spp.), velvetleaf (Abutilon theophrasti), ryegrass, It. (Italian ryegrass, Lolium multiflorum), foxtail, giant (giant foxtail, Setaria faberii), wheat (Triticum aestivum), corn (Zea mays), and pigweed (Amaranthus retroflexus), were planted into a blend of loam soil and sand and treated preemergence with a directed soil spray using test chemicals formulated in a non-phytotoxic solvent mixture which included a surfactant. At the same time, plants selected from these crop and weed species and also blackgrass (Alopecurus myosuroides), and galium (catchweed bedstraw, Galium aparine), were planted in pots containing the same blend of loam soil and sand and treated with postemergence applications of test chemicals formulated in the same manner. Plants ranged in height from 2 to 10 cm and were in the one- to two-leaf stage for the postemergence treatment. Treated plants and untreated controls were maintained in a greenhouse for approximately 10 d, after which time all treated plants were compared to untreated controls and visually evaluated for injury. Plant response ratings, summarized in Table A, are based on a 0 to 100 scale where 0 is no effect and 100 is complete control. A dash (-) response means no test result.

[1] = system: ryegrass, It. (Italian ryegrass, Lolium multiflorum); experiment: Test A postemergence, ryegrass, It.; details: 0 to 100 scale
Excerpt: as §1

[2] = system: pigweed (Amaranthus retroflexus); experiment: Test A preemergence, pigweed; details: 0 to 100 scale
Excerpt: as §1

[3] = system: pigweed (Amaranthus retroflexus); experiment: Test A postemergence, pigweed; details: 0 to 100 scale
Excerpt: as §1

[4] = system: ducksalad (Heteranthera limosa); experiment: Test B flooded paddy test, ducksalad; details: Flood, scale of 0 to 100 where 0 is no effect and 100 is complete control, 13 to 15 d
Procedure: (§2) Plant species in the flooded paddy test selected from rice (Oryza sativa), sedge, umbrella (small-flower umbrella sedge, Cyperus difformis), ducksalad (Heteranthera limosa), and barnyardgrass (Echinochloa crus-galli) were grown to the 2-leaf stage for testing. At time of treatment, test pots were flooded to 3 cm above the soil surface, treated by application of test compounds directly to the paddy water, and then maintained at that water depth for the duration of the test. Treated plants and controls were maintained in a greenhouse for 13 to 15 d, after which time all species were compared to controls and visually evaluated. Plant response ratings, summarized in Table B, are based on a scale of 0 to 100 where 0 is no effect and 100 is complete control. A dash (-) response means no test result.

[5] = system: barnyardgrass (Echinochloa crus-galli); experiment: Test A preemergence, barnyardgrass; details: 0 to 100 scale
Excerpt: as §1

[6] = system: foxtail, giant (giant foxtail, Setaria faberii); experiment: Test A preemergence, foxtail, giant; details: 0 to 100 scale
Excerpt: as §1

rice (Oryza sativa) = experiment: Test B flooded paddy test, rice; details: Flood, scale of 0 to 100 where 0 is no effect and 100 is complete control, 13 to 15 d
Procedure: as §2

[7] = system: ragweed (common ragweed, Ambrosia elatior); experiment: Test A preemergence, ragweed; details: 0 to 100 scale
Excerpt: as §1

[8] = system: ragweed (common ragweed, Ambrosia elatior); experiment: Test A postemergence, ragweed; details: 0 to 100 scale
Excerpt: as §1

kochia (Kochia scoparia) [9] = experiment: Test A postemergence, kochia; details: 0 to 100 scale
Excerpt: as §1

kochia (Kochia scoparia) [10] = experiment: Test A preemergence, kochia; details: 0 to 100 scale
Excerpt: as §1

[11] = system: foxtail, giant (giant foxtail, Setaria faberii); experiment: Test A postemergence, foxtail, giant; details: 0 to 100 scale
Excerpt: as §1

[12] = system: galium (catchweed bedstraw, Galium aparine); experiment: Test A postemergence, galium; details: 0 to 100 scale
Excerpt: as §1

[13] = system: barnyardgrass (Echinochloa crus-galli); experiment: Test A postemergence, barnyardgrass; details: 0 to 100 scale
Excerpt: as §1

[14] = system: barnyardgrass (Echinochloa crus-galli); experiment: Test B flooded paddy test, barnyardgrass; details: Flood, scale of 0 to 100 where 0 is no effect and 100 is complete control, 13 to 15 d
Procedure: as §2

[15] = system: wheat (Triticum aestivum); experiment: Test A postemergence, wheat; details: 0 to 100 scale
Excerpt: as §1

[16] = system: sedge, umbrella (small-flower umbrella sedge, Cyperus difformis); experiment: Test B flooded paddy test, sedge, umbrella; details: Flood, scale of 0 to 100 where 0 is no effect and 100 is complete control, 13 to 15 d
Procedure: as §2

[17] = system: ryegrass, It. (Italian ryegrass, Lolium multiflorum); experiment: Test A preemergence, ryegrass, It.; details: 0 to 100 scale
Excerpt: as §1

[18] = system: blackgrass (Alopecurus myosuroides); experiment: Test A postemergence, blackgrass; details: 0 to 100 scale
Excerpt: as §1

## O=C1NCC(C#Cc2ccc(F)cc2)C1C(=O)Nc1ccc(F)c(F)c1F (stereo not drawn) [Compound 17]
Corn (Zea mays); 125 g ai/ha
  Plant response rating, Corn: 0
Corn (Zea mays); 500 g ai/ha
  Plant response rating, Corn: 0
[1]; 125 g ai/ha
  Plant response rating, Ryegrass, It.: 0
[1]; 500 g ai/ha
  Plant response rating, Ryegrass, It.: 0
[2]; 125 g ai/ha
  Plant response rating, Pigweed: 0
[2]; 500 g ai/ha
  Plant response rating, Pigweed: 20
[3]; 125 g ai/ha
  Plant response rating, Pigweed: 0
[3]; 500 g ai/ha
  Plant response rating, Pigweed: 0
[4]; 250 g ai/ha
  Plant response rating, Ducksalad: 70
[5]; 125 g ai/ha
  Plant response rating, Barnyardgrass: 20
[5]; 500 g ai/ha
  Plant response rating, Barnyardgrass: 50
[6]; 125 g ai/ha
  Plant response rating, Foxtail, Giant: 30
[6]; 500 g ai/ha
  Plant response rating, Foxtail, Giant: 90
Rice (Oryza sativa); 250 g ai/ha
  Plant response rating, Rice: 0
[7]; 125 g ai/ha
  Plant response rating, Ragweed: 0
[7]; 500 g ai/ha
  Plant response rating, Ragweed: 0
[8]; 125 g ai/ha
  Plant response rating, Ragweed: 0
[8]; 500 g ai/ha
  Plant response rating, Ragweed: 0
Kochia (Kochia scoparia) [9]; 125 g ai/ha
  Plant response rating, Kochia: 0
Kochia (Kochia scoparia) [9]; 500 g ai/ha
  Plant response rating, Kochia: 0
Kochia (Kochia scoparia) [10]; 125 g ai/ha
  Plant response rating, Kochia: 0
Kochia (Kochia scoparia) [10]; 500 g ai/ha
  Plant response rating, Kochia: 0
[11]; 125 g ai/ha
  Plant response rating, Foxtail, Giant: 0
[11]; 500 g ai/ha
  Plant response rating, Foxtail, Giant: 50
[12]; 125 g ai/ha
  Plant response rating, Galium: 0
[12]; 500 g ai/ha
  Plant response rating, Galium: 0
[13]; 125 g ai/ha
  Plant response rating, Barnyardgrass: 20
[13]; 500 g ai/ha
  Plant response rating, Barnyardgrass: 90
[14]; 250 g ai/ha
  Plant response rating, Barnyardgrass: 0
[15]; 125 g ai/ha
  Plant response rating, Wheat: 0
[15]; 500 g ai/ha
  Plant response rating, Wheat: 0
[16]; 250 g ai/ha
  Plant response rating, Sedge, Umbrella: 0
[17]; 125 g ai/ha
  Plant response rating, Ryegrass, It.: 0
[17]; 500 g ai/ha
  Plant response rating, Ryegrass, It.: 0
[18]; 125 g ai/ha
  Plant response rating, Blackgrass: 0
[18]; 500 g ai/ha
  Plant response rating, Blackgrass: 0

## O=C1NCC(Cc2ccc(F)c(F)c2)C1C(=O)Nc1cccc(F)c1F (stereo not drawn) [Compound 12]
Corn (Zea mays); 125 g ai/ha
  Plant response rating, Corn: 0
Corn (Zea mays); 500 g ai/ha
  Plant response rating, Corn: 0
[1]; 125 g ai/ha
  Plant response rating, Ryegrass, It.: 0
[1]; 500 g ai/ha
  Plant response rating, Ryegrass, It.: 0
[2]; 125 g ai/ha
  Plant response rating, Pigweed: 0
[2]; 500 g ai/ha
  Plant response rating, Pigweed: 0
[3]; 125 g ai/ha
  Plant response rating, Pigweed: 0
[3]; 500 g ai/ha
  Plant response rating, Pigweed: 0
[4]; 500 g ai/ha
  Plant response rating, Ducksalad: 0
[5]; 125 g ai/ha
  Plant response rating, Barnyardgrass: 0
[5]; 500 g ai/ha
  Plant response rating, Barnyardgrass: 60
[6]; 125 g ai/ha
  Plant response rating, Foxtail, Giant: 0
[6]; 500 g ai/ha
  Plant response rating, Foxtail, Giant: 60
Rice (Oryza sativa); 500 g ai/ha
  Plant response rating, Rice: 0
[7]; 125 g ai/ha
  Plant response rating, Ragweed: 0
[7]; 500 g ai/ha
  Plant response rating, Ragweed: 0
[8]; 125 g ai/ha
  Plant response rating, Ragweed: 0
[8]; 500 g ai/ha
  Plant response rating, Ragweed: 0
Kochia (Kochia scoparia) [9]; 125 g ai/ha
  Plant response rating, Kochia: 0
Kochia (Kochia scoparia) [9]; 500 g ai/ha
  Plant response rating, Kochia: 0
Kochia (Kochia scoparia) [10]; 125 g ai/ha
  Plant response rating, Kochia: 0
Kochia (Kochia scoparia) [10]; 500 g ai/ha
  Plant response rating, Kochia: 0
[11]; 125 g ai/ha
  Plant response rating, Foxtail, Giant: 0
[11]; 500 g ai/ha
  Plant response rating, Foxtail, Giant: 0
[12]; 125 g ai/ha
  Plant response rating, Galium: 0
[12]; 500 g ai/ha
  Plant response rating, Galium: 0
[13]; 125 g ai/ha
  Plant response rating, Barnyardgrass: 0
[13]; 500 g ai/ha
  Plant response rating, Barnyardgrass: 0
[14]; 500 g ai/ha
  Plant response rating, Barnyardgrass: 0
[15]; 125 g ai/ha
  Plant response rating, Wheat: 0
[15]; 500 g ai/ha
  Plant response rating, Wheat: 0
[16]; 500 g ai/ha
  Plant response rating, Sedge, Umbrella: 0
[17]; 125 g ai/ha
  Plant response rating, Ryegrass, It.: 0
[17]; 500 g ai/ha
  Plant response rating, Ryegrass, It.: 0
[18]; 125 g ai/ha
  Plant response rating, Blackgrass: 0
[18]; 500 g ai/ha
  Plant response rating, Blackgrass: 0
